pIC50: −log10 of the molar value.
Assays:
[1] = target: Endothelial lipase (EL) (Homo sapiens (Human), UniProt Q9Y5X9); experiment: EL assay: endothelial lipase activity with fluorescent substrate A10070 in DMPG vesicles; format: biochemical
Summary of the method: (§1)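 Substrate A10070 sits in sonicated DMPG vesicles at 0.11 mole fraction. Lipase and compound preincubated 30 min, 37° C, in HEPES pH 8.0 buffer with CaCl2.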

[2] = target: hepatic lipase (HL) (Homo sapiens (Human), UniProt P11150); experiment: HL assay: hepatic lipase activity with fluorescent substrate A10070 in DMPG vesicles; format: biochemical
Summary of the method: as §1

Sequence of hepatic lipase (HL) (P11150 23-499, species assumed): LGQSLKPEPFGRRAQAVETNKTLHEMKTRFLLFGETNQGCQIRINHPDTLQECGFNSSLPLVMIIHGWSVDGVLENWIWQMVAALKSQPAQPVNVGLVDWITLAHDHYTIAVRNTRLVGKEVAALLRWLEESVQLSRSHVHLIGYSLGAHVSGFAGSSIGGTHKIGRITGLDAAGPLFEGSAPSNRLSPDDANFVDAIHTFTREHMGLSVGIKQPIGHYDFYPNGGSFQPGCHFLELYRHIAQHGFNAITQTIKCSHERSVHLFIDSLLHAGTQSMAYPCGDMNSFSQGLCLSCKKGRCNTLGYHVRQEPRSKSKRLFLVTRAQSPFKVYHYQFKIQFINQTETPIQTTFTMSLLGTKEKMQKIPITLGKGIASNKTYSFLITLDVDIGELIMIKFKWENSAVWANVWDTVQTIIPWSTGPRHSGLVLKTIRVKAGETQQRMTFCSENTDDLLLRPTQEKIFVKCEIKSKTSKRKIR
Sequence of Endothelial lipase (EL) (Q9Y5X9 21-500): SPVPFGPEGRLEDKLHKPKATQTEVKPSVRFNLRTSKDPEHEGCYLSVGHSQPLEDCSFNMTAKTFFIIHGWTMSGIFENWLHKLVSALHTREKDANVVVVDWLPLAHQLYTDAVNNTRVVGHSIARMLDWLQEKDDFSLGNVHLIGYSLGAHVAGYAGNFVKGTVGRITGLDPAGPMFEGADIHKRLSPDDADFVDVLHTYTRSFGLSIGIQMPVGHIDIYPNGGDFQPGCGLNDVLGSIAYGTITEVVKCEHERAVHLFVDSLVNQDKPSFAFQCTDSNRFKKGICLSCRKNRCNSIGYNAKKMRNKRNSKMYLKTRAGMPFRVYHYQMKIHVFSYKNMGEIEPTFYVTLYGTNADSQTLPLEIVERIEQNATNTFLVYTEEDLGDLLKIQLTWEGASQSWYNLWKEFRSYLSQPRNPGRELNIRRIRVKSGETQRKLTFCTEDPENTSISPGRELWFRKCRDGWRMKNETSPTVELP

Compound	pIC50 [1]	pIC50 [2]
NS(=O)(=O)CCNC(=O)C(c1nc2ccc(-c3ccc(C(F)(F)F)nc3)cc2s1)S(=O)(=O)CCN1CCOCC1 (centres unmarked) [Example B316, 2-[2-(morpholin-4-yl)ethanesulfonyl]-N-(2-sulfamoylethyl)-2-{6-[6-(trifluoromethyl)pyridin-3-yl]-1,3-benzothiazol-2-yl}acetamide]	6.84	6.40
CS(=O)(=O)C(C(=O)NCCS(N)(=O)=O)c1nc2ccc(-c3cnn(CCC4CCOCC4)c3)cc2s1 (centres unmarked) [Example B317, 2-methanesulfonyl-2-(6-{1-[2-(oxan-4-yl)ethyl]-1H-pyrazol-4-yl}-1,3-benzothiazol-2-yl)-N-(2-sulfamoylethyl)acetamide]	7.89	6.41
CC1(O)CN(C(=O)c2ccc(-c3ccc4nc(C(C(=O)NCCS(N)(=O)=O)S(C)(=O)=O)sc4c3)cc2)C1 (centres unmarked) [Example B318, 2-{6-[4-(3-hydroxy-3-methylazetidine-1-carbonyl)phenyl]-1,3-benzothiazol-2-yl}-2-methanesulfonyl-N-(2-sulfamoylethyl)acetamide]	8.74	6.04
CC1(O)CN(C(=O)c2ccc(-c3ccc4sc(C(C(=O)NCCS(N)(=O)=O)S(C)(=O)=O)nc4c3)cc2)C1 (centres unmarked) [Example B319, 2-{5-[4-(3-hydroxy-3-methylazetidine-1-carbonyl)phenyl]-1,3-benzothiazol-2-yl}-2-methanesulfonyl-N-(2-sulfamoylethyl)acetamide]	8.32	6.00
CC1(O)CN(C(=O)c2ccc(-c3ccc4nc(C(C(=O)NCCS(N)(=O)=O)S(=O)(=O)CCC(F)(F)F)sc4c3)cc2)C1 (centres unmarked) [Example B320, 2-{6-[4-(3-hydroxy-3-methylazetidine-1-carbonyl)phenyl]-1,3-benzothiazol-2-yl}-N-(2-sulfamoylethyl)-2-(3,3,3-trifluoropropanesulfonyl)a-cetamide]	8.72	5.90
CS(=O)(=O)C(C(=O)NCCS(N)(=O)=O)c1nc2cc(-c3ccc(C(=O)N4CC(F)(F)C4)cc3)ccc2s1 (centres unmarked) [Example B321, 2-{5-[4-(3,3-difluoroazetidine-1-carbonyl)phenyl]-1,3-benzothiazol-2-yl}-2-methanesulfonyl-N-(2-sulfamoylethyl)acetamide]	9.22	6.76
CC1(O)CN(C(=O)c2ccc(-c3ccc4nc(C(C(=O)NCCS(N)(=O)=O)S(=O)(=O)Cc5ccc(C(F)(F)F)cc5)sc4c3)cc2)C1 (centres unmarked) [Example B322, 2-{6-[4-(3-hydroxy-3-methylazetidine-1-carbonyl)phenyl]-1,3-benzothiazol-2-yl}-N-(2-sulfamoylethyl)-2-{[4-(trifluoromethyl)phen-yl]methanesulfonyl}a-cetamide]	8.62	7.43
CC1(O)CN(C(=O)c2ccc(-c3ccc4nc(C(C(=O)NCCS(N)(=O)=O)S(=O)(=O)Cc5ccc(OC(F)(F)F)cc5)sc4c3)cc2)C1 (centres unmarked) [Example B323, 2-{6-[4-(3-hydroxy-3-methylazetidine-1-carbonyl)phenyl]-1,3-benzothiazol-2-yl}-N-{2-sulfamoylethyl)-2-{[4-(trifluoromethoxy)phen-yl]methanesulfonyl}a-cetamide]	8.59	7.09
NS(=O)(=O)CCNC(=O)C(c1nc2ccc(-c3ccc(C(=O)N4CCC(F)(F)C4)cc3)cc2s1)S(=O)(=O)Cc1ccc(OC(F)(F)F)cc1 (centres unmarked) [Example B324, 2-{6-[4-(3,3-difluoropyrrolidine-1-carbonyl)phen-yl]-1,3-benzothiazol-2-yl}-N-(2-sulfamoyl-ethyl)-2-{[4-(trifluoro-methoxy)phen-yl]methanesulfonyl}a-cetamide]	8.04	7.24
Cc1cc2nc(C(C(=O)NCCS(N)(=O)=O)S(=O)(=O)Cc3ccccc3)sc2cc1-c1ccc(C(=O)O)cc1 (centres unmarked) [Example B325, 4-(5-methyl-2-{phen-ylmethanesulfonyl[(2-sulfa-moylethyl)carbamoyl]meth-yl}-1,3-benzothiazol-6-yl)benzoic acid]	8.92	6.98
Cc1cc2nc(C(C(=O)NCCS(N)(=O)=O)S(C)(=O)=O)sc2cc1-c1ccc(C(=O)O)cc1 (centres unmarked) [Example B326, 4-(2-{methanesulfonyl[(2-sulfamoylethyl)carba-moyl]methyl}-5-methyl-1,3-benzothiazol-6-yl)benzoic acid]	8.80	6.70
CS(=O)(=O)C(C(=O)NCCS(N)(=O)=O)c1nc2ccc(-c3ccc(C(=O)N4CC[C@H](O)C4)cc3)cc2s1 (stereo partly drawn) [Example B328, 2-(6-{4-[(3S)-3-hydroxypyrrolidine-1-carbonyl]phen-yl}-1,3-benzothiazol-2-yl)-2-methanesulfonyl-N-(2-sulfamoylethyl)a-cetamide]	8.40	5.58
CS(=O)(=O)C(C(=O)NCCS(N)(=O)=O)c1nc2ccc(-c3ccc(C(=O)N4CC[C@@H](O)C4)cc3)cc2s1 (stereo partly drawn) [Example B329, 2-(6-{4-[(3R)-3-hydroxy-pyrrolidine-1-carbonyl]phen-yl}-1,3-benzothiazol-2-yl)-2-methanesulfonyl-N-(2-sulfamoylethyl)a-cetamide]	8.74	6.58
CS(=O)(=O)C(C(=O)NCCS(N)(=O)=O)c1nc2ccc(-c3ccc(C(=O)N4CC(F)C4)cc3)cc2s1 (centres unmarked) [Example B330, 2-{6-[4-(3-fluoroazetidine-1-carbonyl)phenyl]-1,3-benzothiazol-2-yl}-2-methanesulfonyl-N-(2-sulfamoylethyl)acetamide]	9.15	7.33
NC(=O)c1cccc(-c2ccc3nc(C(C(=O)NCCS(N)(=O)=O)S(=O)(=O)CCC(F)(F)F)sc3c2)c1 (centres unmarked) [Example B331, 3-(2-{[(2-sulfamoylethyl)car-bamoyl](3,3,3-trifluoro-propanesulfonyl)methyl}-1,3-benzothiazol-6-yl)benzamide]	7.14	6.67
NS(=O)(=O)CCNC(=O)C(c1nc2ccc(-c3cccc(C(=O)N4CCC(O)CC4)c3)cc2s1)S(=O)(=O)CCC(F)(F)F (centres unmarked) [Example B332, 2-{6-[3-(4-hydroxy-piperidine-1-carbonyl)phen-yl]-1,3-benzothiazol-2-yl}-N-(2-sulfamoyl-ethyl)-2-(3,3,3-trifluoro-propanesulfonyl)acetamide]	8.82	6.86
NS(=O)(=O)CCNC(=O)C(c1nc2ccc(-c3cccc(C(=O)N4CCOCC4)c3)cc2s1)S(=O)(=O)CCC(F)(F)F (centres unmarked) [Example B333, 2-{6-[3-(morpholine-4-carbonyl)phenyl]-1,3-benzothiazol-2-yl}-N-(2-sulfamoylethyl)-2-(3,3,3-trifluoropropanesulfon-yl)acetamide]	8.01	6.92
NS(=O)(=O)CCNC(=O)C(c1nc2ccc(-c3cccc(C(=O)N4CC(F)(F)C4)c3)cc2s1)S(=O)(=O)CCC(F)(F)F (centres unmarked) [Example B334, 2-{6-[3-(3,3-difluoro-azetidine-1-carbonyl)phen-yl]-1,3-benzothiazol-2-yl}-N-(2-sulfamoyl-ethyl)-2-(3,3,3-trifluoro-propanesulfonyl)acetamide]	7.85	7.22
NS(=O)(=O)CCNC(=O)C(c1nc2ccc(-c3cccc(C(=O)N4CCCC(F)(F)C4)c3)cc2s1)S(=O)(=O)CCC(F)(F)F (centres unmarked) [Example B335, 2-{6-[3-(3,3-difluoro-piperidine-1-carbonyl)phen-yl]-1,3-benzothiazol-2-yl}-N-(2-sulfamoyl-ethyl)-2-(3,3,3-trifluoro-propanesulfonyl)acetamide]	8.26	7.83
NS(=O)(=O)CCNC(=O)C(c1nc2ccc(-c3cccc(C(=O)N4CC(F)C4)c3)cc2s1)S(=O)(=O)CCC(F)(F)F (centres unmarked) [Example B336, 2-{6-[3-(3-fluoroazetidine-1-carbonyl)phenyl]-1,3-benzothiazol-2-yl}-N-(2-sulfamoylethyl)-2-(3,3,3-trifluoropropanesulfonyl)a-cetamide]	8.09	7.65
NS(=O)(=O)CCNC(=O)C(c1nc2ccc(-c3cccc(C(=O)NC4CCC4)c3)cc2s1)S(=O)(=O)CCC(F)(F)F (centres unmarked) [Example B337, N-cyclobutyl-3-(2-{[(2-sulfamoylethyl)carba-moyl](3,3,3-trifluoropropane-sulfonyl)methyl}-1,3-benzothiazol-6-yl)benzamide]	8.17	7.55
CN(CC(F)F)C(=O)c1cccc(-c2ccc3nc(C(C(=O)NCCS(N)(=O)=O)S(=O)(=O)CCC(F)(F)F)sc3c2)c1 (centres unmarked) [Example B338, N-(2,2-difluoroethyl)-N-methyl-3-(2-{[(2-sulfamoylethyl)carba-moyl](3,3,3-trifluoropro-panesulfonyl)methyl}-1,3-benzothiazol-6-yl)benzamide]	7.57	7.00
CC(F)(F)CNC(=O)c1cccc(-c2ccc3nc(C(C(=O)NCCS(N)(=O)=O)S(=O)(=O)CCC(F)(F)F)sc3c2)c1 (centres unmarked) [Example B339, N-(2,2-difluoropropyl)-3-(2-{[(2-sulfamoylethyl)car-bamoyl](3,3,3-trifluoropropanesulfon-yl)methyl}-1,3-benzothiazol-6-yl)benzamide]	8.01	7.31
CN(C)C(=O)c1cccc(-c2ccc3nc(C(C(=O)NCCS(N)(=O)=O)S(=O)(=O)CCC(F)(F)F)sc3c2)c1 (centres unmarked) [Example B340, N,N-dimethyl-3-(2-{[(2-sulfamoylethyl)carba-moyl](3,3,3-trifluoropro-panesulfonyl)methyl}-1,3-benzothiazol-6-yl)benzamide]	7.84	7.10
CC1(O)CCN(C(=O)c2cccc(-c3ccc4nc(C(C(=O)NCCS(N)(=O)=O)S(=O)(=O)CCC(F)(F)F)sc4c3)c2)CC1 (centres unmarked) [Example B341, 2-{6-[3-(4-hydroxy-4-methylpiperidine-1-carbonyl)phenyl]-1,3-benzothiazol-2-yl}-N-(2-sulfamoylethyl)-2-(3,3,3-trifluoropropanesulfon-yl)acetamide]	8.22	6.95
